Test results: ChEMBL document CHEMBL5579883, “Discovery of Novel Neo-Clerodane Derivatives as Potent Dual-Functional Antiosteoporosis Agents through Targeting Peroxisome Proliferator-Activated Receptor-γ” (J Med Chem, 2024)
The source made the active and inactive calls. The calls are words filed in the database; no cut-off is given here.

Legend:
BMDM [1] = assay: Cytotoxicity against mouse Bone marrow macrophage at 10 uM measured after 72 hrs by MTT assay; assay type: toxicity, cell-based
BMDM [2] = assay: Inhibition of osteoclastogenesis in C57BL/6J mouse Bone marrow macrophage cells assessed as inhibition of RANKL-stimulated osteoclast formation measured after 6 days by tartrate-resistant acid phosphatase (TRAP) staining assay; details: 144 h
[3] = target: T1, Peroxisome proliferator-activated receptor gamma (Homo sapiens, UniProt P37231); assay: Antagonist activity at PPAR gamma LBD (203 to 476 residues) (unknown origin) expressed in HEK293T cells co-transfected with pCMV-GAL4-PPARgamma-LBD-SV40-Renilla-luciferase assessed as reduction of rosiglitazone induced PPAR-gamma activation incubated for 24 hrs by dural-luciferase reporter assay; assay type: cell-based
T1 sequence (P37231 whole entry): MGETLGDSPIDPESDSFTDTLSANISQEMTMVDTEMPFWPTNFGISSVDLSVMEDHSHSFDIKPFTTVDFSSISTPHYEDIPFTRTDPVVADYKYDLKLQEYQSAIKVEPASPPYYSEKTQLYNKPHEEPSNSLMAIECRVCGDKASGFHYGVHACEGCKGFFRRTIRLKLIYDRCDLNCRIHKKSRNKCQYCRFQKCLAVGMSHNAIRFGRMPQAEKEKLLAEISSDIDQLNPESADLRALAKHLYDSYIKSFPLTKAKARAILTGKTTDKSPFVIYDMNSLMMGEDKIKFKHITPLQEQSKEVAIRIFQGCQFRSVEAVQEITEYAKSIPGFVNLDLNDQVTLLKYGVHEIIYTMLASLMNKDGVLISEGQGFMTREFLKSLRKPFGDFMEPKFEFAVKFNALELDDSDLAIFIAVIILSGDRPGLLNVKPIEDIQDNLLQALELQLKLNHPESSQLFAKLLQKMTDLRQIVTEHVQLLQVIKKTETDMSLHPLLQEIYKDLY

[4] = target: T1, Peroxisome proliferator-activated receptor gamma; assay: Binding affinity to PPAR gamma LBD (203 to 476 residues) (unknown origin) extracted from Escherichia coli BL21 (DE3) cells assessed as dissociation constant by Isothermal titration calorimetry method
[5] = target: T1, Peroxisome proliferator-activated receptor gamma; assay: Binding affinity to PPAR gamma LBD (203 to 476 residues) (unknown origin) extracted from Escherichia coli BL21 (DE3) cells assessed as dissociation constant in presence of rosiglitazone by Isothermal titration calorimetry method
BMDM [6] = assay: Inhibition of osteoclastogenesis in C57BL/6J mouse Bone marrow macrophage cells assessed as inhibition of RANKL-stimulated osteoclast formation at 10 uM measured after 7 days by tartrate-resistant acid phosphatase (TRAP) staining assay; assay type: functional, cell-based; details: time 7.0 day
BMDM [7] = assay: Inhibition of osteoclastogenesis in C57BL/6J mouse Bone marrow macrophage cells assessed as inhibition of RANKL-stimulated osteoclast formation at 10 uM measured after 7 days in presence of rosiglitazone by tartrate-resistant acid phosphatase (TRAP) staining assay; assay type: functional, cell-based; details: time 7.0 day
[8] = target: T2, Peroxisome proliferator-activated receptor gamma coactivator 1-alpha (Homo sapiens) (UniProt Q9UBK2); assay: Effect on PGC-1 alpha recruitment (unknown origin) incubated for 24 hrs at 10 uM by TR-FRET assay
T2 sequence (whole entry): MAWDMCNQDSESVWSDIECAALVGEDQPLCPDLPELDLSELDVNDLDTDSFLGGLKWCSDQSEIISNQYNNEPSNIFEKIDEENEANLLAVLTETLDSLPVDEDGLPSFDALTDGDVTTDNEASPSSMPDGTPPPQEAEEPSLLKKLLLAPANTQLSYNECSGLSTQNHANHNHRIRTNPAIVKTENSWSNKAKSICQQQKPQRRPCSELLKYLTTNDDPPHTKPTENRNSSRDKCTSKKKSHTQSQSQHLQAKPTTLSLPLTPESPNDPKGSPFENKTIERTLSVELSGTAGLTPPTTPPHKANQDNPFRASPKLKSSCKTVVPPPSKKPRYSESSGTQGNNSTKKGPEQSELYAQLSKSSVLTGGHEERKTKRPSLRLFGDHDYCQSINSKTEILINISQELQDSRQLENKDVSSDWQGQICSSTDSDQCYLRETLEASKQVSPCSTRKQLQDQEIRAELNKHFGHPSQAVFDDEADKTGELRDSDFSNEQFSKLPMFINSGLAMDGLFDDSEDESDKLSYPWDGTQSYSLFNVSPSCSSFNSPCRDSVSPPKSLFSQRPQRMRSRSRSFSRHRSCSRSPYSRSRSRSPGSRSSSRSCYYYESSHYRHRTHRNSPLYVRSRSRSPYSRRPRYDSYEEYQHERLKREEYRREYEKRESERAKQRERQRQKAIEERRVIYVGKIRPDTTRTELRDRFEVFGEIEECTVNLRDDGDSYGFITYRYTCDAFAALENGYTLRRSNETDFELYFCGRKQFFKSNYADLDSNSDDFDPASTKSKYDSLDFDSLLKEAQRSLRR

[9] = target: Nuclear receptor corepressor 1 (Homo sapiens) (UniProt O75376); assay: Effect on NCoR recruitment (unknown origin) at 10 uM incubated for 24 hrs by TR-FRET assay
BMDM [10] = assay: cells; details: Mus musculus, 144 h, read-out: INH
Description: Inhibition of osteoclastogenesis in C57BL/6J mouse Bone marrow macrophage cells assessed as inhibition of RANKL-stimulated osteoclast formation at 10 uM measured after 6 days by tartrate-resistant acid phosphatase (TRAP) staining assay relative to control

Mus musculus [11] = assay: Anti-osteoporosis activity in OVX-induced osteoporosis C57BL/6J mouse model assessed as prevention of bone volume/[…] volume decrease in femur at 10 mg/kg, IG administered once a day for 4 weeks by micro-CT scanning analysis; assay type: functional, organism-based
Mus musculus [12] = assay: Anti-osteoporosis activity in OVX-induced osteoporosis C57BL/6J mouse model assessed as prevention of trabecular thickness decrease in femur at 10 mg/kg, IG administered once a day for 4 weeks by micro-CT scanning analysis; assay type: functional, organism-based
Mus musculus [13] = assay: Anti-osteoporosis activity in OVX-induced osteoporosis C57BL/6J mouse model assessed as prevention of trabecular number decrease in femur at 10 mg/kg, IG administered once a day for 4 weeks by micro-CT scanning analysis; assay type: functional, organism-based
Mus musculus [14] = assay: Anti-osteoporosis activity in OVX-induced osteoporosis C57BL/6J mouse model assessed as prevention of increase in bone surface area/bone volume in femur at 10 mg/kg, IG administered once a day for 4 weeks by micro-CT scanning analysis; assay type: functional, organism-based
Mus musculus [15] = assay: Anti-osteoporosis activity in OVX-induced osteoporosis C57BL/6J mouse model assessed as reduction in PINP level at 10 mg/kg, IG administered once a day for 4 weeks by ELISA method; assay type: functional, organism-based
Mus musculus [16] = assay: Anti-osteoporosis activity in OVX-induced osteoporosis C57BL/6J mouse model assessed as reduction in osteocalcin level at 10 mg/kg, IG administered once a day for 4 weeks by ELISA method; assay type: functional, organism-based
Mus musculus [17] = assay: Anti-osteoporosis activity in OVX-induced osteoporosis C57BL/6J mouse model assessed as reduction in RANKL level at 10 mg/kg, IG administered once a day for 4 weeks by ELISA method; assay type: functional, organism-based
Mus musculus [18] = assay: Anti-osteoporosis activity in OVX-induced osteoporosis C57BL/6J mouse model assessed as reduction in ACP5 level at 10 mg/kg, IG administered once a day for 4 weeks by ELISA method; assay type: functional, organism-based
Mus musculus [19] = assay: Anti-osteoporosis activity in OVX-induced osteoporosis C57BL/6J mouse model assessed as reduction in CTX-1 level at 10 mg/kg, IG administered once a day for 4 weeks by ELISA method; assay type: functional, organism-based
Mus musculus [20] = assay: Anti-osteoporosis activity in OVX-induced osteoporosis C57BL/6J mouse model assessed as recovery of serum estradiol level at 10 mg/kg, IG administered once a day for 4 weeks by ELISA method; assay type: functional, organism-based
Mus musculus [21] = assay: Anti-osteoporosis activity in C57BL/6J mouse model assessed as downregulation of OVX-induced IL-6 accumulation at 10 mg/kg, IG administered once a day for 4 weeks by ELISA method; assay type: functional, organism-based
Mus musculus [22] = assay: Anti-osteoporosis activity in C57BL/6J mouse model assessed as downregulation of OVX-induced TNF-alpha accumulation at 10 mg/kg, IG administered once a day for 4 weeks by ELISA method; assay type: functional, organism-based

Sequence of Nuclear receptor corepressor 1 (Homo sapiens) (O75376 whole entry): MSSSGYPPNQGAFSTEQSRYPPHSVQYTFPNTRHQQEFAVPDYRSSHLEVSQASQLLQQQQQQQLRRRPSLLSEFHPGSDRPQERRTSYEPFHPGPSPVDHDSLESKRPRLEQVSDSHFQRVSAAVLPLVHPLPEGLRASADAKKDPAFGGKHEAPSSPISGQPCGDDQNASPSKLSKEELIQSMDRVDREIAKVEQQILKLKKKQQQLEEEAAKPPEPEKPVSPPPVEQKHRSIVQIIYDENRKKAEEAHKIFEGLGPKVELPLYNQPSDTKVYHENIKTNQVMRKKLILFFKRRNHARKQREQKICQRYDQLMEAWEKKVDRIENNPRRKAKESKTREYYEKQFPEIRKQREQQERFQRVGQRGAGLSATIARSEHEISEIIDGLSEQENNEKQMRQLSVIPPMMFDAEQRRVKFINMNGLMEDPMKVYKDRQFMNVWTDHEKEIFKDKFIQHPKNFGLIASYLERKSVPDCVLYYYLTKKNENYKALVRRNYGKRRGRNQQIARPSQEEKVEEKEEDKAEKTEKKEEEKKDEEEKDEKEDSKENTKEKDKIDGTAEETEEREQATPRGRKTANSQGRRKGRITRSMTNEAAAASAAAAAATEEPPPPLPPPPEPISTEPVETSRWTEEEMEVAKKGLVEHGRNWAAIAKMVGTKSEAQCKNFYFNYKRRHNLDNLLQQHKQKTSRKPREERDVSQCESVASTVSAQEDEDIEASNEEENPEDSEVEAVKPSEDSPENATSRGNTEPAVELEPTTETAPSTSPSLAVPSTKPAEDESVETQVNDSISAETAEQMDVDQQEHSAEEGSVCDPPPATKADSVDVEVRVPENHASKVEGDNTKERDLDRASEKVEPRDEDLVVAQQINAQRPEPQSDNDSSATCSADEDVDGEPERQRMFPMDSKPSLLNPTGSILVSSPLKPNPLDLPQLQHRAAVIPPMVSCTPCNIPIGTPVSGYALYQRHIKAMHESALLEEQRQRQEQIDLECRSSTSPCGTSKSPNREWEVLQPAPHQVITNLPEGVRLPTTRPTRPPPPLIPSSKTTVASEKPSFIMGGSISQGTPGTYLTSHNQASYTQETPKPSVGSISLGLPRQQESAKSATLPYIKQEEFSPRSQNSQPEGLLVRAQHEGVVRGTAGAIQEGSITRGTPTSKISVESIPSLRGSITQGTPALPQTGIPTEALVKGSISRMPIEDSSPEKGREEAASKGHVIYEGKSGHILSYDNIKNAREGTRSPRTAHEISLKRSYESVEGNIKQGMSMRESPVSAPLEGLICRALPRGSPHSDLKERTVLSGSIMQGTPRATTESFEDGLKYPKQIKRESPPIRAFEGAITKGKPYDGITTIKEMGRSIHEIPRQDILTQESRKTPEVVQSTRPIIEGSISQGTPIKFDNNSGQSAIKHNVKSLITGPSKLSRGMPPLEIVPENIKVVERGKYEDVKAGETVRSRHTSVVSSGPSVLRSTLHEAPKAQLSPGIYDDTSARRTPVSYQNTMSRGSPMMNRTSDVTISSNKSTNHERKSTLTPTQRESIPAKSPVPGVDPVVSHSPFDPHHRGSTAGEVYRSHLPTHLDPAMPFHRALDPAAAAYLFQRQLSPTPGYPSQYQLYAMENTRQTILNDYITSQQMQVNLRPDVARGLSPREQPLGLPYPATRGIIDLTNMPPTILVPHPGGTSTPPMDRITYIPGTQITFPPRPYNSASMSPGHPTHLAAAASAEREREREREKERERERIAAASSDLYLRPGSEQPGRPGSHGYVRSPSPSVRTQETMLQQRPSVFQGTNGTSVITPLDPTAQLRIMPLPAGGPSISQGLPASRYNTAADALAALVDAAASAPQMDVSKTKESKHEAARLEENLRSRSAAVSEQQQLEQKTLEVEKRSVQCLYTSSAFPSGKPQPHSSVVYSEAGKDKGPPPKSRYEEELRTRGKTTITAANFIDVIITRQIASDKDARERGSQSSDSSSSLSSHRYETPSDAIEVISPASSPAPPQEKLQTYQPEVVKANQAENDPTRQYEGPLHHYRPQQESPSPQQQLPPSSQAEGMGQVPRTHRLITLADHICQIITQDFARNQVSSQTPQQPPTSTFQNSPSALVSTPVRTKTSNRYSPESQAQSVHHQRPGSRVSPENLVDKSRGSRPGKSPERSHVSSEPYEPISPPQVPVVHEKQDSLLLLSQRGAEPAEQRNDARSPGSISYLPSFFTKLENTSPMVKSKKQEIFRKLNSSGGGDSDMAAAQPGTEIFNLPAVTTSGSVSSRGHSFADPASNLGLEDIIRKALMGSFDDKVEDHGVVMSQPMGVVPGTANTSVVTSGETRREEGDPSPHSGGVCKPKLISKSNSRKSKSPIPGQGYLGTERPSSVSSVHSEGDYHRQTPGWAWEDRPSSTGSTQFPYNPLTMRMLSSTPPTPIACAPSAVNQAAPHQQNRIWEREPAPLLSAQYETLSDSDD

Row | Structure (SMILES) | Activity (BMDM [1]) | IC50 (BMDM [2]) [µM] | IC50 [3] [µM] | Kd [4] [µM] | Kd [5] [µM] | inhibition (BMDM [6]) | inhibition (BMDM [7]) | Activity [8] | Activity [9] | inhibition at 10 µM (BMDM [10]) [%] | other results
1 | C/C=C(\C)C(=O)OC[C@@]12[C@@H](OC(C)=O)C[C@@H](C)[C@](C)(CCC3=CC(=O)OC3)[C@H]1CCC[C@]21CO1 [AJUGACUMBIN A] | Non-Toxic | 1.92 | 8.35 | 17.7 | 79.5 | Active | Active | inactive | inactive | > 50 | –
2 | CCC(C)C(=O)O[C@@H](C[C@@]1(C)[C@H](C)C[C@H](O)[C@]2(C)[C@@H]1CCC[C@H]2C(=O)OC)C1=CC(=O)OC1 (stereo partly drawn) | Non-Toxic | 1.23 | 13 | – | – | – | – | – | – | > 50 | –
3 | CC(=O)OC[C@@]12[C@@H](OC(C)=O)C[C@@H](C)[C@](C)(C[C@H](OC(C)=O)C3=CC(=O)OC3)[C@H]1CCC[C@]21CO1 | Non-Toxic | 2.73 | 13.2 | – | – | – | – | – | – | > 50 | –
4 | C/C=C(\C)C(=O)O[C@@H](C[C@@]1(C)[C@H](C)C[C@H](OC(C)=O)[C@]2(COC(C)=O)[C@@H]1CCC[C@]21CO1)C1=CC(=O)OC1 [AJUGANIPPONIN B] | Non-Toxic | 0.97 | 6.99 | 16 | 127 | Active | Active | inactive | inactive | > 50 | –
5 | CCC(C)C(=O)O[C@@H](C[C@@]1(C)[C@H](C)C[C@H](OC(C)=O)[C@]2(COC(C)=O)[C@@H]1CCC[C@]21CO1)C1=CC(=O)OC1 (stereo partly drawn) | Non-Toxic | 1.42 | 12.2 | – | – | – | – | – | – | > 50 | Activity (Mus musculus [11]): Active; Activity (Mus musculus [12]): Active; Activity (Mus musculus [13]): Active; Activity (Mus musculus [14]): Active; Activity (Mus musculus [15]): Active; Activity (Mus musculus [16]): Active; Activity (Mus musculus [17]): Active; Activity (Mus musculus [18]): Active; Activity (Mus musculus [19]): Active; Activity (Mus musculus [20]): Active; Activity (Mus musculus [21]): Active; Activity (Mus musculus [22]): Active
6 | C/C=C(\C)C(=O)OC[C@@]12[C@H](CCC[C@]13CO3)[C@@](C)(C[C@H](O)C1=CC(=O)OC1)[C@H](C)C[C@@H]2O | Non-Toxic | 3.23 | 11.5 | – | – | – | – | – | – | > 50 | –
